Laboratory results from US8148391B2 (Cephalon, Inc., priority 2006, dated 2012).
Read-outs that look alike come from different tables or passages of the source.

Experiments:
[1] = molecular target: T1, c-Met (cytoplasmic domain) (Homo sapiens, UniProt P08581); test: c-Met Kinase Assay (same methods as for ALK, with modifications); type: biochemical
T1 construct: 10 ng/mL c-Met (cytoplasmic domain, Invitrogen Corporation #PV3143); purchased Invitrogen Corporation PV3143
How it was run: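 Plates were coated with phospholipase C-γ substrate (10 μg/mL) in TBS, and the reaction was started with 10 ng/mL c-Met cytoplasmic domain and run 15 min at 37 °C. Phosphoproduct was detected with Eu-N1-labelled PT66 antibody. IC50 came from a variable-slope sigmoidal fit of percent inhibition vs log concentration.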

[2] = molecular target: T2, baculovirus-expressed ALK (Homo sapiens, UniProt Q9UM73); test: ALK Kinase Assay (ELISA-type, time-resolved fluorescence); type: biochemical
T2 construct: host or cells: baculovirus expression system
T2 sequence (Q9UM73 19-1620): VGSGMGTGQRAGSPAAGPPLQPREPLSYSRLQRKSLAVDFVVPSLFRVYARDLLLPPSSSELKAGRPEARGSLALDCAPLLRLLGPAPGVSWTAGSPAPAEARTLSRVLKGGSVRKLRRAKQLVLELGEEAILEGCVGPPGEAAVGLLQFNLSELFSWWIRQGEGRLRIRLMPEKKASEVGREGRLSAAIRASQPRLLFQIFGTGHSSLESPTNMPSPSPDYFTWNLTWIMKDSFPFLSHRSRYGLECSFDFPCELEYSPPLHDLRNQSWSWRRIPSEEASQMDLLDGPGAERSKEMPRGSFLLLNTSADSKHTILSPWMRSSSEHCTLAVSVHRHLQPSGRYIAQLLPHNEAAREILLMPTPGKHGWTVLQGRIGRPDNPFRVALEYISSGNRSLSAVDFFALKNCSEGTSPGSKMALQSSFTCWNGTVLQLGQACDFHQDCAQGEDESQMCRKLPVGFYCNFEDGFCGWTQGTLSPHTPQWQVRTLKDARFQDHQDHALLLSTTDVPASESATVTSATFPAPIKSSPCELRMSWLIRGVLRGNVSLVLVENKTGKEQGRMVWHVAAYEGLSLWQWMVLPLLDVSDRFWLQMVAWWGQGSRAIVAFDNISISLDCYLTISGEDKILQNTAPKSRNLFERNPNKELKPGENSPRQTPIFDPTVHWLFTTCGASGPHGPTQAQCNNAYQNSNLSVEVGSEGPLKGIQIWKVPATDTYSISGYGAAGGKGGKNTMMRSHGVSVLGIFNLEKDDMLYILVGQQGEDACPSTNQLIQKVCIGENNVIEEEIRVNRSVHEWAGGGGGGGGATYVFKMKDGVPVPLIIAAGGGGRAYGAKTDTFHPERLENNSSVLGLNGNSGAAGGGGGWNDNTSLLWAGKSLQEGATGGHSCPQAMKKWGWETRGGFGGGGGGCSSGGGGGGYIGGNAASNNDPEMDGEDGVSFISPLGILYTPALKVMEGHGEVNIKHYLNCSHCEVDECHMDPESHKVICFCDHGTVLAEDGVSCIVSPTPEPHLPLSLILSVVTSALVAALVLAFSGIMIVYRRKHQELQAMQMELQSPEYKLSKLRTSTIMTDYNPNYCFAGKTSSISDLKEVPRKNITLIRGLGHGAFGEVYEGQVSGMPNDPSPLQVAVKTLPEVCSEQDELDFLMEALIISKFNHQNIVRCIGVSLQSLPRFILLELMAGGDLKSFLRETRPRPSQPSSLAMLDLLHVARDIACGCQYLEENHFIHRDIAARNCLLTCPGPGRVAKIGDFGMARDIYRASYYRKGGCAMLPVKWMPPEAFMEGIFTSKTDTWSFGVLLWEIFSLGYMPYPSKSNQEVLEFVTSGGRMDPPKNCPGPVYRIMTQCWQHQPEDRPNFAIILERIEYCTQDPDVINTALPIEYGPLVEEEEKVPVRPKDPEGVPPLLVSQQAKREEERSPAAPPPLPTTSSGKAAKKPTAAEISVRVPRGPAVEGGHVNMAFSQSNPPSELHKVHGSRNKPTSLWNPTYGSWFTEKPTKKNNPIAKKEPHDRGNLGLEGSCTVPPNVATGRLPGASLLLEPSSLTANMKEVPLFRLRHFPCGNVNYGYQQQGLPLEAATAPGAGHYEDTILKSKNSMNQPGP
How it was run: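 Plates coated with phospholipase C-γ substrate (10 μg/mL in TBS); reaction started with 30 ng/ml ALK and run 15 min at 37° C. Phosphorylated substrate detected with Eu-N1-labeled PT66 antibody. IC50 from sigmoidal variable-slope fit of percent inhibition vs log concentration.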

[3] = 1 μM ATP (Km level), read-out: cMet Activity (c-Met Kinase Inhibition, IC50)
[4] = 1 μM ATP (Km level), read-out: ALK Activity (ALK Kinase Inhibition, IC50)
[5] = c-Met kinase inhibition, 1 μM ATP, read-out: cMet Activity
[6] = ALK kinase inhibition, 1 μM ATP, read-out: ALK Activity
[7] = 1 μM ATP (Km level), 10 ng/mL c-Met, read-out: cMet Activity (c-Met kinase inhibition, IC50 class)
[8] = 1 μM ATP (Km level), 30 ng/ml ALK, 37° C., 15 minutes, read-out: ALK Activity (ALK kinase inhibition, IC50 class)
[9] = c-Met kinase inhibition, 1 μM ATP (Km level), read-out: cMet Activity
[10] = ALK kinase inhibition, 1 μM ATP (Km level), read-out: ALK Activity

T1 sequence (P08581 956-1390 limits assumed): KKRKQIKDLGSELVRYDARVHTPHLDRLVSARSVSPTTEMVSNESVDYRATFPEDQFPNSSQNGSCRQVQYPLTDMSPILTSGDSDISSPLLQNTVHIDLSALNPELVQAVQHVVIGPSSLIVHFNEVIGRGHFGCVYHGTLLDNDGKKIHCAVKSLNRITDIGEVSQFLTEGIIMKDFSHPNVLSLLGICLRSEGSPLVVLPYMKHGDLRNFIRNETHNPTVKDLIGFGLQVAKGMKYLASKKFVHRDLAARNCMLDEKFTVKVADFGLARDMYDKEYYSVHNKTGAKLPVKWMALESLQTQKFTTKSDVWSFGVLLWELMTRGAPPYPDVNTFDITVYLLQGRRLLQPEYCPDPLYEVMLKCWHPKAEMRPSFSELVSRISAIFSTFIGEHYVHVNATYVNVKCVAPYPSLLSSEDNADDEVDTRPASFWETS

With `COc1cc2c(cc1Nc1ncc(Cl)c(N[C@H]3[C@@H](C(N)=O)[C@@H]4C=C[C@H]3C4)n1)CCN(CC(F)F)CC2` [Example 806, (1S,2S,3R,4R)-3-{5-Chloro-2-[3-(2,2-difluoro-ethyl)-8-methoxy-2,3,4,5-tetrahydro-1H-benzo[d]azepin-7-ylamino]-pyrimidin-4-ylamino}-bicyclo[2.2.1]hept-5-ene-2-carboxylic acid amide] the IC50 [1, 3] was over 10000 nM and the IC50 [2, 4] was under 100 nM.
`CNC(=O)c1cccc(F)c1Nc1nc(Nc2ccc3c(c2)NC(=O)CN(C(C)=O)C3)ncc1Cl` [Example 1848, 2-[2-(4-Acetyl-2-oxo-2,3,4,5-tetrahydro-1H-benzo[e][1,4]diazepin-8-ylamino)-5-chloro-pyrimidin-4-ylamino]-3-fluoro-N-methyl-benzamide] was tested, and the IC50 [1, 5] was 100 to 1000 nM and the IC50 [2, 6] was 100 to 1000 nM.
Compound `COc1c(Nc2ncc(Cl)c(Nc3ccccc3-n3cccn3)n2)ccc2c1CCC(NCC(F)F)CC2` (stereo not shown) [Example 689, 5-Chloro-N*2*-[7-(2,2-difluoro-ethylamino)-1-methoxy-6,7,8,9-tetrahydro-5H-benzocyclohepten-2-yl]-N*4*-(2-pyrazol-1-yl-phenyl)-pyrimidine-2,4-diamine] has an IC50 [1, 3] of over 10000 nM and an IC50 [2, 4] of under 100 nM.
With `CC(=O)N1CCC(=O)NCc2cc(Nc3ncc(Cl)c(Nc4ccccc4OCC#N)n3)ccc21` [Example 1231, {2-[2-(1-Acetyl-4-oxo-1,2,3,4,5,6-hexahydro-benzo[b][1,5]diazocin-8-ylamino)-5-chloro-pyrimidin-4-ylamino]-phenoxy}-acetonitrile] the IC50 [1, 7] was under 100 nM and the IC50 [2, 8] was under 100 nM.
With `CNC(=O)c1cccc(Cl)c1Nc1nc(Nc2ccc3c(c2)C2CCC(C3)N2)ncc1Cl` (stereo not shown) [Example 90, 2-[2-(12-Aza-tricyclo[7.2.1.0*2,7*]dodeca-2(7),3,5-trien-4-ylamino)-5-chloro-pyrimidin-4-ylamino]-3-chloro-N-methyl-benzamide] the IC50 [1, 9] was under 100 nM and the IC50 [2, 10] was 100 to 1000 nM.
For `CCN1CCc2ccc(Nc3ncc(C)c(Nc4ccccc4C(=O)NC)n3)cc2CC1` [Example 191, 2-[2-(3-Ethyl-2,3,4,5-tetrahydro-1H-benzo[d]azepin-7-ylamino)-5-methyl-pyrimidin-4-ylamino]-N-methyl-benzamide], the IC50 [1, 9] was under 100 nM and the IC50 [2, 10] was under 100 nM.
With `CCN1CCc2ccc(Nc3ncc(Cl)c(N[C@@H]4c5ccccc5C[C@@H]4O)n3)cc2CC1` [Example 235, (1R,2S)-1-[5-Chloro-2-(3-ethyl-2,3,4,5-tetrahydro-1H-benzo[d]azepin-7-ylamino)-pyrimidin-4-ylamino]-indan-2-ol] the IC50 [1, 9] was 1000 to 10000 nM and the IC50 [2, 10] was under 100 nM.
Work on `COc1cc2c(cc1Nc1ncc(Cl)c(N[C@@H]3CCCC[C@H]3NS(C)(=O)=O)n1)CCC(NCC(F)F)CC2` (single isomer, unassigned) [Example 1057] yielded an IC50 [1, 7] of over 10000 nM and an IC50 [2, 8] of under 100 nM.
Compound `COc1cc2c(cc1Nc1ncc(Cl)c(N[C@H]3[C@@H](C(N)=O)[C@@H]4C=C[C@H]3C4)n1)CCN(CCO)CC2` [Example 1532, (1S,2S,3R,4R)-3-{5-Chloro-2-[3-(2-hydroxy-ethyl)-8-methoxy-2,3,4,5-tetrahydro-1H-3-benzazepin-7-ylamino]-pyrimidin-4-ylamino}-bicyclo[2.2.1]hept-5-ene-2-carboxylic acid amide] has an IC50 [1, 5] of over 10000 nM and an IC50 [2, 6] of under 100 nM.
Work on `CC(C)N1C(=O)CCCc2cc(Nc3ncc(Cl)c(N[C@@H]4CCCC[C@H]4NS(C)(=O)=O)n3)ccc21` [Example 667, N-{(1R,2R)-2-[5-Chloro-2-(1-isopropyl-2-oxo-2,3,4,5-tetrahydro-1H-benzo[b]azepin-7-ylamino)-pyrimidin-4-ylamino]-cyclohexyl}-methanesulfonamide] yielded an IC50 [1, 3] of 100 to 1000 nM and an IC50 [2, 4] of under 100 nM.
`CCN1C(=O)CCC(C)(C)c2ccc(Nc3ncc(Cl)c(Nc4ccccc4C(=O)NC)n3)cc21` [Example 1589, 2-[5-Chloro-2-(1-ethyl-5,5-dimethyl-2-oxo-2,3,4,5-tetrahydro-1H-benzo[b]azepin-8-ylamino)-pyrimidin-4-ylamino]-N-methyl-benzamide] gave an IC50 [1, 5] of under 100 nM and an IC50 [2, 6] of under 100 nM.
